Target: human APJ receptor (Homo sapiens (Human), UniProt P35414)
Experiment: biochemical
Format: biochemical
Conditions: read-out: Activity hAPJ SPA EC50 IP
Summary of the method: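 Agonist-stimulated [35S]GTPγS (0.2 nM) binding was read by SPA after 90 min at room temperature. Buffer: 20 mM HEPES pH 7.5 with 5 mM MgCl2, 200 mM NaCl, 3 μM GDP, 0.1% BSA; membranes were from a stable human APJ CHO line. EC50 values are averages of independent runs, fitted by non-linear regression.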

Chain of human APJ receptor (P35414 whole entry): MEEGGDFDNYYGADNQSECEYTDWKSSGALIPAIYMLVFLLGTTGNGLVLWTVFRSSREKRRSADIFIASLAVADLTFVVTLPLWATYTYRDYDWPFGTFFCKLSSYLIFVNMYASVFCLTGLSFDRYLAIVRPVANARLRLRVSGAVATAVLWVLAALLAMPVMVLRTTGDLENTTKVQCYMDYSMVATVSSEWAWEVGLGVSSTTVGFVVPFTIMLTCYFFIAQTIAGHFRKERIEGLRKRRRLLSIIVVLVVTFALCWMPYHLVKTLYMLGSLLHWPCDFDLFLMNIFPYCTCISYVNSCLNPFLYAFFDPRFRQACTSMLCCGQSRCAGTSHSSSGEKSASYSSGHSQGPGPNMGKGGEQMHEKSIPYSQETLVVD

| Compound | EC50 |
| --- | --- |
| COc1ncnc(OC)c1-n1c(NS(=O)(=O)[C@@H]2C[C@@H](OC)CN(c3ncc(F)cn3)C2)nnc1-c1cccnc1 (single isomer, unassigned) [Example 812.0, (3S,5S)—N-(4-(4,6-dimethoxy-5-pyrimidinyl)-5-(3-pyridinyl)-4H-1,2,4-triazol-3-yl)-1-(5-fluoro-2-pyrimidinyl)-5-methoxy-3-piperidinesulfonamide or (3R,5R)—N-(4-(4,6-dimethoxy-5-pyrimidinyl)-5-(3-pyridinyl)-4H-1,2,4-triazol-3-yl)-1-(5-fluoro-2-pyrimidinyl)-5-methoxy-3-piperidinesulfonamide] | 230 nM |
| Cc1cnc([C@@H](C)[C@H](C)S(=O)(=O)Nc2nnc(-c3cncc(C)c3)n2-c2c(F)cccc2F)nc1 (single isomer, unassigned) [Example 826.0] | 1.7 nM |
| COc1cccc(-c2nnc(NS(=O)(=O)[C@@H]3CCCN(c4ncc(Cl)cn4)C3)n2-c2c(OC)ncnc2OC)n1 (single isomer, unassigned) [Example 830.0] | 14 nM |
| COc1ncnc(OC)c1-n1c(NS(=O)(=O)[C@@H]2C[C@H](OC)CN(c3ncc(F)cn3)C2)nnc1-c1cccnc1 (stereo in doubt) [Example 813.0, (3S,5R)-N-(4-(4,6-dimethoxy-5-pyrimidinyl)-5-(3-pyridinyl)-4H-1,2,4-triazol-3-yl)-1-(5-fluoro-2-pyrimidinyl)-5-methoxy-3-piperidinesulfonamide, (3R,5S)-N-(4-(4,6-dimethoxy-5-pyrimidinyl)-5-(3-pyridinyl)-4H-1,2,4-triazol-3-yl)-1-(5-fluoro-2-pyrimidinyl)-5-methoxy-3-piperidinesulfonamide] | 140 nM |
| COc1ncnc(OC)c1-n1c(NS(=O)(=O)[C@@H]2C[C@H](OC)CN(c3ncc(F)cn3)C2)nnc1-c1cccnc1 (stereo in doubt) [Example 814.0, (3R,5S)-N-(4-(4,6-dimethoxy-5-pyrimidinyl)-5-(3-pyridinyl)-4H-1,2,4-triazol-3-yl)-1-(5-fluoro-2-pyrimidinyl)-5-methoxy-3-piperidinesulfonamide, (3R,5S)-N-(4-(4,6-dimethoxy-5-pyrimidinyl)-5-(3-pyridinyl)-4H-1,2,4-triazol-3-yl)-1-(5-fluoro-2-pyrimidinyl)-5-methoxy-3-piperidinesulfonamide] | 560 nM |
| COc1ncnc(OC)c1-n1c(NS(=O)(=O)[C@@H]2C[C@@H](OC)CN(c3ncc(F)cn3)C2)nnc1-c1cccnc1 (stereo in doubt) [Example 815.0, (3S,5S)-N-(4-(4,6-dimethoxy-5-pyrimidinyl)-5-(3-pyridinyl)-4H-1,2,4-triazol-3-yl)-1-(5-fluoro-2-pyrimidinyl)-5-methoxy-3-piperidinesulfonamide, (3R,5R)-N-(4-(4,6-dimethoxy-5-pyrimidinyl)-5-(3-pyridinyl)-4H-1,2,4-triazol-3-yl)-1-(5-fluoro-2-pyrimidinyl)-5-methoxy-3-piperidinesulfonamide] | 170 nM |
| COc1cccc(OC)c1-n1c(NS(=O)(=O)[C@@H]2C[C@@H](OC)CN(c3ncc(F)cn3)C2)nnc1-c1cccnc1 (stereo in doubt) [Example 816.0, (3S,5S)-N-(4-(2,6-dimethoxyphenyl)-5-(3-pyridinyl)-4H-1,2,4-triazol-3-yl)-1-(5-fluoro-2-pyrimidinyl)-5-methoxy-3-piperidinesulfonamide, (3R,5R)-N-(4-(2,6-dimethoxyphenyl)-5-(3-pyridinyl)-4H-1,2,4-triazol-3-yl)-1-(5-fluoro-2-pyrimidinyl)-5-methoxy-3-piperidinesulfonamide] | 18 nM |
| COc1cccc(OC)c1-n1c(NS(=O)(=O)[C@@H]2C[C@H](OC)CN(c3ncc(F)cn3)C2)nnc1-c1cccnc1 (stereo in doubt) [Example 817.0, (3R,5S)-N-(4-(2,6-dimethoxyphenyl)-5-(3-pyridinyl)-4H-1,2,4-triazol-3-yl)-1-(5-fluoro-2-pyrimidinyl)-5-methoxy-3-piperidinesulfonamide, (3S,5R)-N-(4-(2,6-dimethoxyphenyl)-5-(3-pyridinyl)-4H-1,2,4-triazol-3-yl)-1-(5-fluoro-2-pyrimidinyl)-5-methoxy-3-piperidinesulfonamide] | 16 nM |
| COc1cccc(OC)c1-n1c(NS(=O)(=O)[C@@H]2C[C@H](OC)CN(c3ncc(F)cn3)C2)nnc1-c1cccnc1 (stereo in doubt) [Example 818.0, (3R,5S)-N-(4-(2,6-dimethoxyphenyl)-5-(3-pyridinyl)-4H-1,2,4-triazol-3-yl)-1-(5-fluoro-2-pyrimidinyl)-5-methoxy-3-piperidinesulfonamide, (3S,5R)-N-(4-(2,6-dimethoxyphenyl)-5-(3-pyridinyl)-4H-1,2,4-triazol-3-yl)-1-(5-fluoro-2-pyrimidinyl)-5-methoxy-3-piperidinesulfonamide] | 110 nM |
| COc1cccc(OC)c1-n1c(NS(=O)(=O)[C@@H]2C[C@@H](OC)CN(c3ncc(F)cn3)C2)nnc1-c1cccnc1 (stereo in doubt) [Example 819.0, (3S,5S)-N-(4-(2,6-dimethoxyphenyl)-5-(3-pyridinyl)-4H-1,2,4-triazol-3-yl)-1-(5-fluoro-2-pyrimidinyl)-5-methoxy-3-piperidinesulfonamide, (3R,5R)-N-(4-(2,6-dimethoxyphenyl)-5-(3-pyridinyl)-4H-1,2,4-triazol-3-yl)-1-(5-fluoro-2-pyrimidinyl)-5-methoxy-3-piperidinesulfonamide] | 33 nM |
| COc1cccc(OC)c1-n1c(NS(=O)(=O)[C@H](C)[C@H](OC(C)C)c2cn3ccccc3n2)nnc1-c1cccnc1 (stereo in doubt) [Example 827.0, (1R,2R)-N-(4-(2,6-dimethoxyphenyl)-5-(3-pyridinyl)-4H-1,2,4-triazol-3-yl)-1-imidazo[1,2-a]pyridin-2-yl-1-(1-methylethoxy)-2-propanesulfonamide, (1S,2S)-N-(4-(2,6-dimethoxyphenyl)-5-(3-pyridinyl)-4H-1,2,4-triazol-3-yl)-1-imidazo[1,2-a]pyridin-2-yl-1-(1-methylethoxy)-2-propanesulfonamide] | 10 nM |
| COc1cccc(OC)c1-n1c(NS(=O)(=O)[C@H](C)[C@H](OC(C)C)c2cn3ccccc3n2)nnc1-c1cccnc1 (stereo in doubt) [Example 828.0, (1R,2R)-N-(4-(2,6-dimethoxyphenyl)-5-(3-pyridinyl)-4H-1,2,4-triazol-3-yl)-1-imidazo[1,2-a]pyridin-2-yl-1-(1-methylethoxy)-2-propanesulfonamide, (1S,2S)-N-(4-(2,6-dimethoxyphenyl)-5-(3-pyridinyl)-4H-1,2,4-triazol-3-yl)-1-imidazo[1,2-a]pyridin-2-yl-1-(1-methylethoxy)-2-propanesulfonamide] | 480 nM |
| COc1cccc(-c2nnc(NS(C)(=O)=O)n2-c2c(OC)cccc2OC)n1 [Example 4.02, N-(4-(2,6-dimethoxyphenyl)-5-(6-methoxypyridin-2-yl)-4H-1,2,4-triazol-3-yl)methanesulfonamide] | 220 nM |
| CCS(=O)(=O)Nc1nnc(-c2cccc(OC)n2)n1-c1c(OC)cccc1OC [Example 29.0, N-(4-(2,6-dimethoxyphenyl)-5-(6-methoxypyridin-2-yl)-4H-1,2,4-triazol-3-yl)ethanesulfonamide] | 150 nM |
| CCS(=O)(=O)Nc1nnc(-c2cccc(C)n2)n1-c1c(OC)cccc1OC [Example 30.0, N-(4-(2,6-dimethoxyphenyl)-5-(6-methylpyridin-2-yl)-4H-1,2,4-triazol-3-yl)ethanesulfonamide] | 830 nM |
| COc1cccc(-c2nnc(NS(=O)(=O)[C@@H](C)[C@H](OC)c3ncc(C)cn3)n2-c2cccnc2)n1 [Example 33.0, (1R,2S)-1-methoxy-N-(5-(6-methoxypyridin-2-yl)-4-(pyridin-3-yl)-4H-1,2,4-triazol-3-yl)-1-(5-methylpyrimidin-2-yl)propane-2-sulfonamide] | 56 nM |
| COc1cccc(-c2nnc(NS(=O)(=O)[C@@H](C)[C@H](OC)c3ncc(C)cn3)n2-c2ccccc2)n1 [Example 34.0, (1R,2S)-1-methoxy-N-(5-(6-methoxypyridin-2-yl)-4-phenyl-4H-1,2,4-triazol-3-yl)-1-(5-methylpyrimidin-2-yl)propane-2-sulfonamide] | 4.2 nM |
| COc1cccc(-c2nnc(NS(=O)(=O)[C@@H](C)[C@H](OC)c3ncc(C)cn3)n2-c2c(OC)ncnc2OC)n1 [Example 35.0, (1R,2S)-N-(4-(4,6-dimethoxypyrimidin-5-yl)-5-(6-methoxypyridin-2-yl)-4H-1,2,4-triazol-3-yl)-1-methoxy-1-(5-methylpyrimidin-2-yl)propane-2-sulfonamide] | 0.54 nM |
| COc1cccc(-c2nnc(NS(=O)(=O)[C@@H](C)[C@H](OC)c3ncc(C)cn3)n2-c2cc(C(F)(F)F)cc(C(F)(F)F)c2)n1 [Example 39.0, (1R,2S)-N-(4-(3,5-bis(trifluoromethyl)phenyl)-5-(6-methoxypyridin-2-yl)-4H-1,2,4-triazol-3-yl)-1-methoxy-1-(5-methylpyrimidin-2-yl)propane-2-sulfonamide] | 540 nM |
| COc1cccc(-c2nnc(NS(=O)(=O)[C@@H](C)[C@H](OC)c3ncc(C)cn3)n2-c2c(OC(F)F)cccc2OC(F)F)n1 [Example 41.0, (1R,2S)-N-(4-(2,6-bis(difluoromethoxy)phenyl)-5-(6-methoxypyridin-2-yl)-4H-1,2,4-triazol-3-yl)-1-methoxy-1-(5-methylpyrimidin-2-yl)propane-2-sulfonamide] | 0.22 nM |
| COc1cccc(-c2nnc(NS(=O)(=O)[C@@H](C)[C@H](OC)c3ncc(C)cn3)n2-c2ccncc2)n1 [Example 42.0, (1R,2S)-1-methoxy-N-(5-(6-methoxypyridin-2-yl)-4-(pyridin-4-yl)-4H-1,2,4-triazol-3-yl)-1-(5-methylpyrimidin-2-yl)propane-2-sulfonamide] | 51 nM |
| COc1cccc(-c2nnc(NS(=O)(=O)[C@@H](C)[C@H](OC)c3ncc(C)cn3)n2-c2ccc(Cl)cc2)n1 [Example 45.0, (1R,2S)-N-(4-(4-chlorophenyl)-5-(6-methoxy-2-pyridinyl)-4H-1,2,4-triazol-3-yl)-1-methoxy-1-(5-methyl-2-pyrimidinyl)-2-propanesulfonamide] | 96 nM |

Source: patent US10058550B2, “Methods of treating heart failure” (priority 2015, dated 2018)
